Test results published in patent US8552013B2, “Heterocyclic compounds based on N6-substituted adenine, methods of their preparation, their use for preparation of drugs, cosmetic preparations and growth regulators, pharmaceutical preparations, cosmetic preparations and growth regulators containing these compounds” (USTAV Experimentalni Botaniky Akademie Ved Ceske Republiky, priority 2001, dated 2013).
Like-named read-outs stand apart in the source and are kept apart here.

How the values were obtained:
[1] = tested on: Amaranthus caudatus cotyledon/hypocotyl explants; assay: Amaranthus bioassay, betacyanin content; type: in vivo; conditions: betacyanin content at the concentration with highest activity
G-361 = assay: Calcein AM cytotoxicity, G-361; type: cell-based; conditions: read-out: IC 50, G-361
[2] = tested on: tobacco callus Nicotiana tabacum L. cv. Wisconsin 38; assay: Cytokinin-dependent tobacco callus growth; type: cell-based; conditions: fresh callus weight at the concentration with highest activity
HOS = assay: Calcein AM cytotoxicity, HOS; type: cell-based; conditions: Homo sapiens, HOS, 72 h
[3] = tested on: Triticum aestivum cv. Hereward leaf tips; assay: Retention of chlorophyll in excised wheat leaf tips; type: in vivo; conditions: chlorophyll retention at the concentration with highest activity
Outline: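 Tips of first leaves from 7-day wheat (cv. Hereward) seedlings kept on compound solutions (10^−8 to 10^−4 M, from DMSO stock) for 96 h in the dark at 25 °C. Chlorophyll extracted in 80% ethanol at 80 °C and read at 665 nm. Activity at the best concentration expressed relative to 10^−4 M BAP (100%), five replicates.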

| SMILES | activity (%) [10^−5 mol · l^−1 BAP = 100%] [1] | IC50 (G-361; 72 hours) | Activity (%) [10^−4 mol · l^−1 BAP = 100%] [2] | IC50 (HOS) | Activity (%) [10^−4 mol · l^−1 BAP = 100%] [3] | IC50 (G-361; Homo sapiens, G-361, 72 hours) |
| --- | --- | --- | --- | --- | --- | --- |
| Fc1ccccc1CNc1ncnc2nc[nH]c12 [6-(2-fluorobenzylamino)purine] | 116 (±3) % | 106 µM | 111 (±21) % | > 167 µM | 169 (±20) % |  |
| Cc1ccccc1CNc1ncnc2nc[nH]c12 [6-(2-methylbenzylamino)purine] | 98 (±22) % |  | 118 (±3) % | > 167 µM | 158 (±29) % | > 167 µM |
| Fc1cccc(CNc2ncnc3nc[nH]c23)c1 [6-(3-fluorobenzylamino)purine] | 140 (±5) % |  | 135 (±8) % | > 167 µM | 200 (±25) % |  |
| Ic1cccc(CNc2ncnc3nc[nH]c23)c1 [6-(3-iodobenzylamino)purine] | 79 (±3) % |  | 76 (±8) % | > 167 µM | 83.5 (±23) % | > 167 µM |
| COc1cccc(CNc2ncnc3nc[nH]c23)c1 [6-(3-methoxybenzylamino)purine] | 90 (±16) % |  | 76 (±20) % | > 167 µM | 178 (±16) % |  |
| Cc1ccc(CNc2ncnc3nc[nH]c23)cc1 [6-(4-methylbenzylamino)purine] | 26 (±10) % |  | 52 (±8) % | > 167 µM | 35 (±23) % | 160 µM |
| Oc1cccc(CNc2ncnc3nc[nH]c23)c1 [meta-topolin, 6-(3-hydroxybenzylamino)purine] |  |  |  | > 167 µM |  |  |
| Oc1ccccc1CNc1ncnc2nc[nH]c12 [ortho-topolin, 6-(2-hydroxybenzylamino)purine] |  |  |  | > 167 µM |  |  |
